Assay results reported in US20100303934A1, “METHODS AND COMPOSITIONS FOR NERVE REGENERATION” (Oregon Health & Science University, priority 2004, published 2010).

What was measured:
[1] = system: SH-SY5Y human neuroblastoma cells; test: Neurite elongation (neurite outgrowth length) assay in SH-SY5Y cells in the presence of NGF; type: cell-based; conditions: for Activity in the neurite elongation assay (FIG. 17): tested at 1 μm, in the presence of NGF; for Process elongation in micrographs (FIGS. 3-10): SH-SY5Y cells at 168 hours, with NGF
Protocol: SH-SY5Y human neuroblastoma cells were maintained in DMEM medium (GIBCO) supplemented with 10% fetal calf serum (SIGMA), 50 IU/mL penicillin, and […] streptomycin (GIBCO) at 37° C. in 7% CO2. Cells were plated in six-well plates at 1×10^6 cells/well and treated with […] aphidicolin (SIGMA). At five days, cells were washed, treated with nerve growth factor (NGF) (Boehringer Mannheim, Indianapolis, Ind.) at 10 ng/mL (to induce process outgrowth) in the presence or absence of the Centella asiatica extract and extract fractions (100 μg/mL). […] All experiments were run in duplicate wells and repeated at least twice for reproducibility.
Neurite lengths were measured on photographic prints using a SummaSketch III digitizing tablet connected with Bioquant Classic 95 software (R&M Biometrics, Nashville, Term.); only those processes greater than two times the cell body length were measured. […] Histograms were compared using a Mann-Whitney U test, which makes no assumptions about the shape of the distribution.

[2] = system: SHSY5Y neuroblastoma cells; test: Protection against hydrogen peroxide induced toxicity (CellTiter Blue / LDH); type: cell-based, human; conditions: positive control, concentration not given; H2O2 125 to 500 μM
Protocol: SHSY5Y neuroblastoma cells were grown in DMEM/F12 medium (from Gibco) containing 10% fetal calf serum (FCS), 100 ug/ml streptomycin sulphate, 100 U/ml penicillin G in a humidified air/5% CO2 chamber at 37 C. The following method was followed: Day1. Plate SHSY5Y cells on 24-well plate at 100,000/well Day4. Remove old medium, add fresh medium with 10 ng/ml NGF. Day5. Add GK, GKW or EGCG (epigallocatechin gallate; a known antioxidant), overnight. Day6. Remove old medium (containing test substances), add fresh medium (2% FCS) with 10 ng/ml NGF. Treat cells with or without H2O2, for 2-3 hours. Remove medium and H2O2, wash 1× with fresh medium with NGF, add fresh medium (2% FCS) with NGF again, incubate overnight. Day7. Harvest supernatant for LDH assay. Add fresh medium and CellTiter Blue reagent (from Promega, containing resazurin) into each well, incubate for 2 hours, read fluorescence under the Fluorometer. @ 560 nm EX/590 nm EM, cut off 590 nm.

Molecule | Activity in the neurite elongation assay (FIG. 17) [1] | Process elongation in micrographs (FIGS. 3-10) [1] | further results
C[C@H]1[C@H](C)CC[C@]2(C(=O)O)CC[C@]3(C)C(=CC[C@@H]4[C@@]5(C)C[C@@H](O)[C@H](O)[C@@](C)(CO)[C@@H]5[C@H](O)C[C@]43C)[C@H]12 [madecassic acid] | active |  | 
madecassoside | not active |  | 
C[C@H]1[C@H](C)CC[C@]2(C(=O)O)CC[C@]3(C)C(=CC[C@@H]4[C@@]5(C)C[C@@H](O)[C@H](O)[C@@](C)(CO)[C@@H]5CC[C@]43C)[C@H]12 [asiatic acid] | active | markedly increased | Activity of AA in the presence of the MEK inhibitor PD 098059 ([1]; FIG. 10, 168 hours): prevented; Stimulation of neurite outgrowth elongation ([1]; concentration of 104 (0.5 μg/mL)): considerable stimulation
C=CC[C@@H]1/C=C(\C)C[C@H](C)C[C@H](OC)[C@H]2O[C@@](O)(C(=O)C(=O)N3CCCC[C@H]3C(=O)O[C@H](/C(C)=C/[C@@H]3CC[C@@H](O)[C@H](OC)C3)[C@H](C)[C@@H](O)CC1=O)[C@H](C)C[C@@H]2OC [FK506, reference compound] |  |  | Neurite elongation activity in the absence of NGF ([1]; absence of NGF): no activity
O=C(O[C@@H]1Cc2c(O)cc(O)cc2O[C@@H]1c1cc(O)c(O)c(O)c1)c1cc(O)c(O)c(O)c1 [EGCG, epigallocatechin gallate] |  |  | Protection against H2O2 toxicity [2]: protective
NGF: nerve growth factor (Boehringer Mannheim), 10 ng/mL, used to induce process outgrowth (protein, UniProt P01139 122-241, looked up, Beta-nerve growth factor, nerve growth factor (Boehringer Mannheim), 10 ng/mL, used to induce process outgrowth) Beta-nerve growth factor: SSTHPVFHMGEFSVCDSVSVWVGDKTTATDIKGKEVTVLAEVNINNSVFRQYFFETKCRASNPVESGCRGIDSKHWNSYCTTTHTFVKALTTDEKQAAWRFIRIDTACVCVLSRKATRRG |  | demonstrate process elongation | Mean neurite length (μm) at 168 h ([1]; test substance 100 μg/mL, in the presence of NGF (10 ng/mL), 168 h): 115 μm
